Source: patent publication US20250136553A1, “ACYLSULFONAMIDE KAT6A INHIBITORS” (Olema Pharmaceuticals, Inc., priority 2023, published 2025)

Biological target: human-KAT6A (MYST domain 507-778 aa) (Homo sapiens (Human), UniProt Q92794)
Assay: KAT6A biochemical assay (TR-FRET)
Details: @ 1 μM; reported where IC50 could not be determined; read-out: Percent inhibition at specific concentration (KAT6A)
Source text: TR-FRET based methods were used for assaying compounds of the present invention for KAT6A enzyme inhibitory activity. TR-FRET is a homogeneous proximity assay where Europium-labelled anti-acetyl lysine antibody binds to the acetylated substrate labelled with biotin, which in turn binds to streptavidin-labelled APC fluorescence acceptor. Europium can transfer energy to APC in the complex and the interaction of two dye-labelled binding partners is detected by the energy transfer between a donor and an acceptor dye and the subsequent light emission by the acceptor dye. KAT6A transfer an acetyl group from acetyl CoA to lysine amino acids of histones/target proteins. […] The selected compound of the present invention and enzyme are incubated for 30 min on plate shaker at 300 rpm at 25° C. Next, 5 μL of substrate mix containing histone H4 peptide and acetyl-CoA in assay buffer is added to the plate. The final concentrations of H4 peptide and acetyl-CoA are 200 nM and 600 nM, respectively. Following 60 min reaction at 25° C. on plate shaker at 300 rpm, 5 μL of detection mix containing Europium-labelled anti-acetyl antibody and streptavidin-APC is added to the reaction wells. The plate is further incubated at 25° C. on shaker at 300 rpm and is read in TR-FRET mode (Ex:340 nm; Em: 615 nm and 665 nm) on a plate reader to achieve ˜5-7-fold activity. The percent inhibition was calculated from the ratio of the fluorescence (FL) intensities [(F665/F615)×10000) using the formula […]. IC50 values of the compounds were determined by fitting the dose-response data to sigmoidal curve fitting equation using Graph pad prism software V9.

Sequence of human-KAT6A (MYST domain 507-778 aa) (Q92794 507-778): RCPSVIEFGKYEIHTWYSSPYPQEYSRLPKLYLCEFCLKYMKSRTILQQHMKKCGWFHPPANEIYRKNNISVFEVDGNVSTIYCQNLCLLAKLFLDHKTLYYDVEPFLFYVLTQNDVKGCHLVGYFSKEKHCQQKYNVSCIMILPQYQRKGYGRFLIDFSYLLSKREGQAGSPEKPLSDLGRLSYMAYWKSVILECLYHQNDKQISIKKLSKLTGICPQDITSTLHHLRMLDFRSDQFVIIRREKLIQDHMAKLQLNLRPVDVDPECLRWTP

SMILES | inhibition at 1 µM [%]
COc1cccc(OC)c1S(=O)(=O)NC(=O)c1ccc(Cn2cccn2)c(OC)c1OC [Compound 41, 4-((1H-pyrazol-1-yl)methyl)-N-((2,6-dimethoxyphenyl)sulfonyl)-2,3-dimethoxybenzamide] | 35
COc1cccc(OC)c1S(=O)(=O)NC(=O)c1ccc(Cn2cccn2)c(OC(F)F)n1 [Compound 215, 5-((1H-pyrazol-1-yl)methyl)-6-(difluoromethoxy)-N-((2,6-dimethoxyphenyl)sulfonyl)picolinamide] | 16

Same assay, conditions: TR-FRET; histone H4 peptide 200 nM, acetyl-CoA 600 nM; read-out: KAT6A IC50

SMILES | IC50 [nM]
COc1cc(C(=O)NS(=O)(=O)c2ccc3c(c2)CCO3)ccc1Cn1cccn1 [Compound 310, 4-((1H-pyrazol-1-yl)methyl)-N-((2,3-dihydrobenzofuran-5-yl)sulfonyl)-3-methoxybenzamide] | 112
COc1ccc(C(C)(C)C)cc1S(=O)(=O)NC(=O)c1ccc(Cn2cccn2)c(Br)c1 [Compound 16, 4-((1H-pyrazol-1-yl)methyl)-3-bromo-N-((5-(tert-butyl)-2-methoxyphenyl)sulfonyl)benzamide] | 26
COc1nc(C(=O)N[S@@](=N)(=O)c2c(F)cccc2F)ccc1Cn1cccn1 [Compound 308a, (R)-5-((1H-pyrazol-1-yl)methyl)-N-(2,6-difluorophenylsulfonimidoyl)-6-methoxypicolinamide] | 1580
COc1cc(Cn2cccn2)ccc1C(=O)NS(=O)(=O)c1cc(C(C)(C)C)ccc1OC [Compound 4] | 82
COc1cccc(OC)c1S(=O)(=O)NC(=O)c1ccc(Cn2cccn2)c(C(F)(F)F)c1 [Compound 35] | 30
COc1cccc(OC)c1S(=O)(=O)NC(=O)c1ccc(Cn2cccn2)c(C2CC2)c1F [Compound 40, 4-((1H-pyrazol-1-yl)methyl)-3-cyclopropyl-N-((2,6-dimethoxyphenyl)sulfonyl)-2-fluorobenzamide] | 15
COc1cc(OC)c(S(=N)(=O)NC(=O)c2ccc(Cn3cccn3)c(OC)n2)c(OC)c1 (stereo not drawn) [Compound 263, 5-((1H-pyrazol-1-yl)methyl)-6-methoxy-N-(2,4,6-trimethoxyphenylsulfonimidoyl)picolinamide] | 36
COc1cc(C(=O)N[S@@](=N)(=O)c2c(OC)ccc(Cl)c2OC)ccc1Cn1cccn1 [Compound 302a, (R)-4-((1H-pyrazol-1-yl)methyl)-N-(3-chloro-2,6-dimethoxyphenylsulfonimidoyl)-3-methoxybenzamide] | 21
COc1cc(C(=O)NS(=O)(=O)c2c(OC)cccc2OC)c(OC)cc1Cn1cccn1 [Compound 48, 4-((1H-pyrazol-1-yl)methyl)-N-((2,6-dimethoxyphenyl)sulfonyl)-2,5-dimethoxybenzamide] | 51
COc1cccc(OC2CCC2)c1S(=N)(=O)NC(=O)c1ccc(Cn2cccn2)c(OC)n1 (stereo not drawn) [Compound 261, 5-((1H-pyrazol-1-yl)methyl)-N-(2-cyclobutoxy-6-methoxyphenylsulfonimidoyl)-6-methoxypicolinamide] | 38
COc1cc(Cn2cccn2)ccc1C(=O)NS(=O)(=O)c1cc2c(cc1OC)CCC2 [Compound 5, 4-((1H-pyrazol-1-yl)methyl)-2-methoxy-N-((6-methoxy-2,3-dihydro-1H-inden-5-yl)sulfonyl)benzamide] | 178
COc1cc(OC)c(S(=O)(=O)NC(=O)c2ccc(Cn3cccn3)c(OC)n2)cc1Cl [Compound 238, 5-((1H-pyrazol-1-yl)methyl)-N-((5-chloro-2,4-dimethoxyphenyl)sulfonyl)-6-methoxypicolinamide] | 37
COc1cc(OC)c([S@](=N)(=O)NC(=O)c2ccc(Cn3cccn3)c(OC)n2)c(OC)c1 [Compound 296a, (R)-5-((1H-pyrazol-1-yl)methyl)-6-methoxy-N-(2,4,6-trimethoxyphenylsulfonimidoyl)picolinamide] | 16
CCOc1cc(C(=O)NS(=O)(=O)c2cc(C(C)(C)C)ccc2OC)ccc1Cn1cccn1 [Compound 21, 4-((1H-pyrazol-1-yl)methyl)-N-((5-(tert-butyl)-2-methoxyphenyl)sulfonyl)-3-ethoxybenzamide] | 28
COc1ccc(S(=O)(=O)NC(=O)c2ccc(Cn3cccn3)c(OC)n2)c(OC)c1 [Compound 226, 5-((1H-pyrazol-1-yl)methyl)-N-((2,4-dimethoxyphenyl)sulfonyl)-6-methoxypicolinamide] | 27
COc1ccc(C2CC2)c(OC)c1S(=O)(=O)NC(=O)c1ccc(Cn2cccn2)c(OC)n1 [Compound 223, 5-((1H-pyrazol-1-yl)methyl)-N-((3-cyclopropyl-2,6-dimethoxyphenyl)sulfonyl)-6-methoxypicolinamide] | 17
COc1cccc(OC2CCC2)c1S(=O)(=O)NC(=O)c1ccc(Cn2cccn2)c(OC)n1 [Compound 219, 5-((1H-pyrazol-1-yl)methyl)-N-((2-cyclobutoxy-6-methoxyphenyl)sulfonyl)-6-methoxypicolinamide] | 9
COc1cc(Cn2cccn2)ccc1C(=O)NS(=O)(=O)c1cc2c(cc1OC)CCCC2 [Compound 15, 4-((1H-pyrazol-1-yl)methyl)-2-methoxy-N-((3-methoxy-5,6,7,8-tetrahydronaphthalen-2-yl)sulfonyl)benzamide] | 576
COc1cccc(OC)c1S(=O)(=O)NC(=O)c1ccc(Cn2cccn2)c(OC(F)(F)F)n1 [Compound 228, 5-((1H-pyrazol-1-yl)methyl)-N-((2,6-dimethoxyphenyl)sulfonyl)-6-(trifluoromethoxy)picolinamide] | 21

Other lines, results leading:

IC50 [nM] | SMILES
14 | COc1ccc(C(C)(C)CO)cc1[S@](=N)(=O)NC(=O)c1ccc(Cn2cccn2)c(OC)n1 [Compound 290a, (R)-5-((1H-pyrazol-1-yl)methyl)-N-(5-(1-hydroxy-2-methylpropan-2-yl)-2-methoxyphenylsulfonimidoyl)-6-methoxypicolinamide]
13 | COc1cccc(OC)c1S(=O)(=O)NC(=O)c1ccc(Cn2cccn2)c(C2CC2)n1 [Compound 229, 5-((1H-pyrazol-1-yl)methyl)-6-cyclopropyl-N-((2,6-dimethoxyphenyl)sulfonyl)picolinamide]
12 | COc1ccc(C)cc1S(=O)(=O)NC(=O)c1ccc(Cn2cccn2)c(OC)n1 [Compound 214, 5-((1H-pyrazol-1-yl)methyl)-6-methoxy-N-((2-methoxy-5-methylphenyl)sulfonyl)picolinamide]
12 | CCC(C)(O)c1ccc(OC)c(S(=O)(=O)NC(=O)c2ccc(Cn3cccn3)c(OC)n2)c1 (stereo not drawn) [Compound 239, 5-((1H-pyrazol-1-yl)methyl)-N-((5-(2-hydroxybutan-2-yl)-2-methoxyphenyl)sulfonyl)-6-methoxypicolinamide]
11 | COc1cc(C(=O)NS(=O)(=O)c2c(OC)cccc2OC(C)C)ccc1Cn1cccn1 [Compound 55, 4-((1H-pyrazol-1-yl)methyl)-N-((2-isopropoxy-6-methoxyphenyl)sulfonyl)-3-methoxybenzamide]
11 | COc1ccc(C(C)(C)O)cc1S(=O)(=O)NC(=O)c1ccc(Cn2cccn2)c(OC)n1 [Compound 230, 5-((1H-pyrazol-1-yl)methyl)-N-((5-(2-hydroxypropan-2-yl)-2-methoxyphenyl)sulfonyl)-6-methoxypicolinamide]
11 | COc1nc(C(=O)NS(=O)(=O)c2cc(C(F)(F)F)cc3c2OCC3)ccc1Cn1cccn1 [Compound 287, 5-((1H-pyrazol-1-yl)methyl)-6-methoxy-N-((5-(trifluoromethyl)-2,3-dihydrobenzofuran-7-yl)sulfonyl)picolinamide]
10 | COc1cc(C(=O)NS(=O)(=O)c2cc(C3CC3)ccc2OC)ccc1Cn1cccn1 [Compound 29, 4-((1H-pyrazol-1-yl)methyl)-N-((5-cyclopropyl-2-methoxyphenyl)sulfonyl)-3-methoxybenzamide]
10 | COc1ccc2c(c1S(=O)(=O)NC(=O)c1ccc(Cn3cccn3)c(OC)n1)OCO2 [Compound 281, 5-((1H-pyrazol-1-yl)methyl)-6-methoxy-N-((5-methoxybenzo[d][1,3]dioxol-4-yl)sulfonyl)picolinamide]
8 | COc1ccc(C(C)(C)C)cc1S(=O)(=O)NC(=O)c1ccc(Cn2cccn2)c(OC)n1 [Compound 205, 5-((1H-pyrazol-1-yl)methyl)-N-((5-(tert-butyl)-2-methoxyphenyl)sulfonyl)-6-methoxypicolinamide]
8 | COc1ccc(S(=O)(=O)NC(=O)c2ccc(Cn3cccn3)c(OC)c2)c(OC)c1 [Compound 42, 4-((1H-pyrazol-1-yl)methyl)-N-((2,4-dimethoxyphenyl)sulfonyl)-3-methoxybenzamide]
5 | COc1nc(C(=O)NS(=O)(=O)c2cc(C(C)(C)C)cc3c2OCC3)ccc1Cn1cccn1 [Compound 280, 5-((1H-pyrazol-1-yl)methyl)-N-((5-(tert-butyl)-2,3-dihydrobenzofuran-7-yl)sulfonyl)-6-methoxypicolinamide]
